# Test results from patent US4022900A, “Compositions containing 1,2,3,4-tetrahydroisoquinolines used as hypotensive agents” (Marion Laboratories, Inc., priority 1972, dated 1977).
# Where a name gives a salt, the structure may show the parent alone. Read-outs that look alike come from different tables or passages of the source.
# How the values were obtained:
# [1] = Acute toxicity (LD50) in the mouse; conditions: in vivo; for LD50 at 24 h: read-out: Approximate Acute Toxicity (24 hrs.) In the Mouse, LD50
# Protocol: 5-(3,4,5-trimethoxybenzamido)-2-methyl-1,2,3,4-tetrahydroisoquinoline (M-20) in mice has an LD-50 of about 125 to 250 mg/kg intraperitoneally.
# (§1) Additional compounds have been tested. The toxicity data for the additional compounds tested, and their identity, is given in the following Table II while the blood pressure lowering activity of the compounds is given in the following Table III. The heading "Example Number" in the tables refers to the working example herein which discloses the compounds and its preparation. The test procedure used for determining the blood pressure lowering activity of the compounds is the same as that previously set forth herein. However, the figures in Table III are expressed as percentage change in blood pressure, rather than in mm of mercury change in blood pressure, as presented in Table I herein.
# Approximate Acute Toxicity (24 hrs.)
# (a) Suspension in 1% tragacanth
# (b) Solution in distilled water
# (c) Solubilized with the aid of dilute acid
# [2] = test system: arterial blood pressure of anesthetized dog; test: Arterial blood pressure in the anesthetized dog; assay type: in vivo; conditions: 5 mg/kg intravenously
# femoral artery of a dog = test: Peripheral vasodilator activity after administration into femoral artery of a dog; assay type: in vivo; conditions: into the femoral artery, compared with papaverine
# [3] = test system: systolic blood pressure of deoxycorticosterone acetate hypertensive rats; test: Hypotensive activity in DCA/saline hypertensive rats (systolic blood pressure, tail cuff); assay type: in vivo, rat (male, CD strain); conditions: for Lowering of Blood Pressure in Hypertensive rate in mm's of Hg., 1 hr. / Lowering of Blood Pressure in Hypertensive rate in mm's of Hg., 2 hrs. / Lowering of Blood Pressure in Hypertensive rate in mm's of Hg., 4 hrs. / Lowering of Blood Pressure in Hypertensive rate in mm's of Hg., 24 hrs.: 50 mg/kg intraperitoneal, change vs predrug control, six rats; for Percent Change in Pressure from Control ± S.E., 1 Hour / Percent Change in Pressure from Control ± S.E., 2 Hours / Percent Change in Pressure from Control ± S.E., 4 Hours / Percent Change in Pressure from Control ± S.E., 24 Hours: 50 mg/kg i.p., systolic pressure, * <0.05 significance (Newman-Keuls)
# Protocol: Hypertension was produced in weanling (30-day old) male rats of the CD strain obtained from the Charles River Breeding Laboratories (Wilmington, Mass.) by subcutaneously implanting about the dorsal surface of the neck a pellet of deoxycorticosterone acetate (DCA) containing 10 mg DCA in a mixture of Carbowax 4000 (Union Carbide) and Flexowax C light (Glyco Products). Their drinking water was replaced by a 1% sodium chloride solution, a procedure known to facilitate the development of an experimental hypertension, and they had free access to chow. Systolic blood pressure in the caudal arteries was measured indirectly by a pneumatic pulse transducer and a tail pressure cuff on a Physiograph Four recorder (Narco Bio-Systems, Inc., Houston, Texas) in unanesthetized but restrained rats prewarmed to 40° C., 10-15 minutes prior to the determination. The rats were kept at a temperature of 40° C. for all determinations of systolic pressure in an attempt to minimize variations in blood pressure due to marked changes in arterial tone caused by changes in temperature. Blood pressures were measured at intervals in the DCA-treated rats given saline and in non-treated control rats. After 20 days, the mean systolic pressure in the DCA-treated rats was above 150 mm Hg. Hypertension was regarded as being established in the rats at this stage and they were at intervals, usually beginning with the 30th day after DCA-implant in testing for hypotensive activity. Following a series of control blood pressure readings, a dose of 50 mg/kg of the compound under investigation was administered by intraperitoneal injection either in solution or as a suspension in 1% tragacanth solution to groups of six hypertensive rats. Blood pressures were redetermined at 1, 2, 4 and 24 hour periods following injection. At each interval, the systolic pressure was measured a minimum of five times in each rat and the average value was calculated. Mean values for the group were calculated from the individual average values and compared with their predrug control levels. The statistical significance of the changes produced by the compounds, in the doses employed, was tested by the "t" test as well as by an analysis of variance. The reductions in blood pressure obtained with the indicated representative tetrahydroisoquinoline compounds are shown in Table I. The code number for the compound and the example herein showing its preparation are both given in Table I.
# as §1
# [4] = Table I, unit, species and route not given
# [5] = ip, solubilized with the aid of dilute acid
Compound,"LD50 [1, 4] [mg/kg]","LD50 ([1]; ip, mice, intraperitoneally, about) [mg/kg]",arterial blood pressure [2],peripheral vasodilator activity (femoral artery of a dog),"Lowering of Blood Pressure in Hypertensive rate in mm's of Hg., 1 hr. [3]","Lowering of Blood Pressure in Hypertensive rate in mm's of Hg., 2 hrs. [3]","Lowering of Blood Pressure in Hypertensive rate in mm's of Hg., 4 hrs. [3]","Lowering of Blood Pressure in Hypertensive rate in mm's of Hg., 24 hrs. [3]","LD50 at 24 h [1, 5] [mg/kg]","Percent Change in Pressure from Control ± S.E., 1 Hour [3] [%]","Percent Change in Pressure from Control ± S.E., 2 Hours [3] [%]","Percent Change in Pressure from Control ± S.E., 4 Hours [3] [%]","Percent Change in Pressure from Control ± S.E., 24 Hours [3] [%]","LD50 at 24 h ([1]; ip, solution in distilled water) [mg/kg]"
"COc1cc(C(=O)Nc2cccc3c2CCN(C)C3)cc(OC)c1OC [M-20, 5-(3,4,5-Trimethoxybenzamido)-2-methyl-1,2,3,4-tetrahydroisoquinoline]",125 to 250,125 to 250,decreased arterial blood pressure,peripheral vasodilator activity although less than that of papaverine,-19±3 mm's of Hg,-26±2 mm's of Hg,-15±10 mm's of Hg,-3±2 mm's of Hg,,,,,,
"CCc1cccc(CC)c1C(=O)Nc1cccc2c1CCN(C)C2 [M-66, 5-(2,6-Diethylbenzamido)-2-methyl-1,2,3,4-tetrahydroisoquinoline]",,,,,,,,,125 to 250,-5.7 ± 3.0,-7.5 ± 4.6,-6.1 ± 2.8,-2.1 ± 2.3,
"CN1CCc2c(cccc2NC(=O)c2ccccc2F)C1 [M-68, 5-(2-Fluorobenzamido)-2-methyl-1,2,3,4-tetrahydroisoquinoline]",250 to 500,,,,-13±5 mm's of Hg,-10±5 mm's of Hg,-11±4 mm's of Hg,-20±4 mm's of Hg,,,,,,
"CN1CCc2c(cccc2NC(=O)c2ccccc2[N+](=O)[O-])C1 [M-69, 5-(2-Nitrobenzamido)-2-methyl-1,2,3,4-tetrahydroisoquinoline]",,,,,,,,,125 to 250,,-4.1 ± 3.0,-3.3 ± 4.0,-1.0 ± 3.0,
"CN1CCc2c(cccc2NC(=O)c2ccccc2I)C1 [M-70, 5-(2-Iodobenzamido)-2-methyl-1,2,3,4-tetrahydroisoquinoline]",,,,,,,,,< 31,-6.8 ± 2.1,-9.9 ± 2.1,-5.7 ± 1.9,-0.7 ± 2.9,
"COc1cc(C(=O)Nc2ccc3c(c2)CCN(C)C3)cc(OC)c1OC [M-72, 6-(3,4,5-Trimethoxybenzamido)-2-methyl-1,2,3,4-tetrahydroisoquinoline HCl]",,,,,,,,,,-21.6 ± 1.7,-19.4 ± 4.0,-11.9 ± 3.4,-3.8 ± 1.3,188 to 250
